Results reported in the NIST ThermoML archive (doi:10.1016/j.jct.2016.10.023).
Numbers after ± are expanded uncertainties.

Assay: xn = mol fraction of the nth substance listed
Conditions: Constant-volume piezometry

CCCCC [pentane] + CCCO
Conditions | mass density [kg/m3]
492.15 K, 4052 kPa, Gas, x1 = 0.5 | 144.33 ± 0.56
492.15 K, 4112 kPa, Gas, x1 = 0.5 | 154.72 ± 0.62
493.15 K, 888 kPa, Gas, x1 = 0.5 | 15.54 ± 0.05
493.15 K, 1226 kPa, Gas, x1 = 0.8 | 22.56 ± 0.07
493.15 K, 1421 kPa, Gas, x1 = 0.2 | 24.96 ± 0.08
493.15 K, 1591 kPa, Gas, x1 = 0.5 | 30.02 ± 0.09
493.15 K, 1810 kPa, Gas, x1 = 0.8 | 36.74 ± 0.11
493.15 K, 2098 kPa, Gas, x1 = 0.5 | 40.54 ± 0.13
493.15 K, 2429 kPa, Gas, x1 = 0.5 | 51.17 ± 0.16
493.15 K, 2601 kPa, Gas, x1 = 0.8 | 58.5 ± 0.18
493.15 K, 2706 kPa, Gas, x1 = 0.2 | 53.08 ± 0.16
493.15 K, 2984 kPa, Gas, x1 = 0.5 | 67.61 ± 0.21
493.15 K, 3042 kPa, Gas, x1 = 0.8 | 73.9 ± 0.23
493.15 K, 3148 kPa, Gas, x1 = 0.5 | 72.7 ± 0.23
493.15 K, 3184 kPa, Gas, x1 = 0.9 | 83.5 ± 0.26
493.15 K, 3462 kPa, Gas, x1 = 0.5 | 89.03 ± 0.29
493.15 K, 3598 kPa, Gas, x1 = 0.5 | 95.98 ± 0.32
493.15 K, 3742 kPa, Gas, x1 = 0.8 | 106.55 ± 0.34
493.15 K, 3862 kPa, Fluid (supercritical or subcritical phases), x1 = 0.9 | 123.52 ± 0.67
493.15 K, 3941 kPa, Gas, x1 = 0.5 | 122.07 ± 0.41
493.15 K, 3987 kPa, Fluid (supercritical or subcritical phases), x1 = 0.9 | 134.31 ± 0.71
493.15 K, 4087 kPa, Gas, x1 = 0.5 | 144.32 ± 0.53
493.15 K, 4129 kPa, Liquid, x1 = 0.2 | 471.17 ± 0.96
493.15 K, 4161 kPa, Gas, x1 = 0.5 | 154.71 ± 0.57
493.15 K, 4227 kPa, Gas, x1 = 0.5 | 165.38 ± 0.75
493.15 K, 4237 kPa, Fluid (supercritical or subcritical phases), x1 = 0.8 | 140.51 ± 0.71
493.15 K, 4263 kPa, Gas, x1 = 0.5 | 183.12 ± 1.2
493.15 K, 4268 kPa, Fluid (supercritical or subcritical phases), x1 = 0.9 | 164.19 ± 0.89
493.15 K, 4335 kPa, Fluid (supercritical or subcritical phases), x1 = 0.5 | 282.8 ± 1.6
493.15 K, 4335 kPa, Fluid (supercritical or subcritical phases), x1 = 0.8 | 156.27 ± 0.87
493.15 K, 4414 kPa, Fluid (supercritical or subcritical phases), x1 = 0.5 | 299.12 ± 1.6
493.15 K, 4423 kPa, Fluid (supercritical or subcritical phases), x1 = 0.8 | 170.03 ± 1
493.15 K, 4439 kPa, Fluid (supercritical or subcritical phases), x1 = 0.9 | 189.73 ± 0.98
493.15 K, 4462 kPa, Fluid (supercritical or subcritical phases), x1 = 0.8 | 176.28 ± 0.95
493.15 K, 4502 kPa, Fluid (supercritical or subcritical phases), x1 = 0.8 | 181.09 ± 1
493.15 K, 4518 kPa, Fluid (supercritical or subcritical phases), x1 = 0.9 | 202.67 ± 1.1
493.15 K, 4547 kPa, Fluid (supercritical or subcritical phases), x1 = 0.8 | 193.44 ± 1
493.15 K, 4549 kPa, Fluid (supercritical or subcritical phases), x1 = 0.5 | 320.48 ± 1.8
493.15 K, 4592 kPa, Fluid (supercritical or subcritical phases), x1 = 0.5 | 325.77 ± 1.7
493.15 K, 4629 kPa, Fluid (supercritical or subcritical phases), x1 = 0.9 | 221.01 ± 1.1
493.15 K, 4679 kPa, Fluid (supercritical or subcritical phases), x1 = 0.8 | 214.17 ± 1.1
493.15 K, 4710 kPa, Fluid (supercritical or subcritical phases), x1 = 0.8 | 219.94 ± 1.2
493.15 K, 4720 kPa, Fluid (supercritical or subcritical phases), x1 = 0.9 | 233.41 ± 1.2
493.15 K, 4743 kPa, Fluid (supercritical or subcritical phases), x1 = 0.9 | 236.88 ± 1.2
493.15 K, 4769 kPa, Fluid (supercritical or subcritical phases), x1 = 0.9 | 241.29 ± 1.3
493.15 K, 4776 kPa, Fluid (supercritical or subcritical phases), x1 = 0.5 | 345.09 ± 1.8
493.15 K, 4792 kPa, Fluid (supercritical or subcritical phases), x1 = 0.9 | 244.6 ± 1.3
493.15 K, 4810 kPa, Fluid (supercritical or subcritical phases), x1 = 0.8 | 235.05 ± 1.2
493.15 K, 4875 kPa, Fluid (supercritical or subcritical phases), x1 = 0.8 | 245.71 ± 1.3
493.15 K, 4935 kPa, Fluid (supercritical or subcritical phases), x1 = 0.8 | 258.95 ± 1.4
493.15 K, 5020 kPa, Fluid (supercritical or subcritical phases), x1 = 0.9 | 282.43 ± 1.4
493.15 K, 5042 kPa, Fluid (supercritical or subcritical phases), x1 = 0.8 | 272.94 ± 1.5
493.15 K, 5149 kPa, Fluid (supercritical or subcritical phases), x1 = 0.8 | 288.82 ± 1.5
493.15 K, 5207 kPa, Fluid (supercritical or subcritical phases), x1 = 0.5 | 373.47 ± 1.9
493.15 K, 5245 kPa, Fluid (supercritical or subcritical phases), x1 = 0.9 | 302.14 ± 1.5
493.15 K, 5306 kPa, Fluid (supercritical or subcritical phases), x1 = 0.8 | 299.65 ± 1.5
493.15 K, 5423 kPa, Fluid (supercritical or subcritical phases), x1 = 0.9 | 312.8 ± 1.6
493.15 K, 5594 kPa, Fluid (supercritical or subcritical phases), x1 = 0.8 | 315.85 ± 1.6
493.15 K, 5904 kPa, Fluid (supercritical or subcritical phases), x1 = 0.9 | 334.55 ± 1.7
493.15 K, 5953 kPa, Fluid (supercritical or subcritical phases), x1 = 0.5 | 398.77 ± 2
493.15 K, 5998 kPa, Fluid (supercritical or subcritical phases), x1 = 0.8 | 334.37 ± 1.7
493.15 K, 6296 kPa, Fluid (supercritical or subcritical phases), x1 = 0.8 | 345.91 ± 1.7
493.15 K, 6629 kPa, Fluid (supercritical or subcritical phases), x1 = 0.9 | 354.68 ± 1.8
493.15 K, 6775 kPa, Fluid (supercritical or subcritical phases), x1 = 0.5 | 417.91 ± 2.1
493.15 K, 7003 kPa, Fluid (supercritical or subcritical phases), x1 = 0.8 | 362.51 ± 1.8
493.15 K, 7649 kPa, Liquid, x1 = 0.2 | 510.49 ± 1
493.15 K, 8441 kPa, Fluid (supercritical or subcritical phases), x1 = 0.5 | 441.69 ± 2.2
493.15 K, 9382 kPa, Fluid (supercritical or subcritical phases), x1 = 0.5 | 452.03 ± 2.3
493.15 K, 10256 kPa, Fluid (supercritical or subcritical phases), x1 = 0.9 | 407.97 ± 2
493.15 K, 10826 kPa, Fluid (supercritical or subcritical phases), x1 = 0.8 | 418.91 ± 2.1
493.15 K, 11783 kPa, Fluid (supercritical or subcritical phases), x1 = 0.5 | 468.97 ± 2.4
493.15 K, 14598 kPa, Liquid, x1 = 0.2 | 548.05 ± 1.1

Liquid, x1 = 0.5
Conditions | mass density [kg/m3]
492.65 K | 282.81 ± 1.7
492.95 K | 270.96 ± 1.6
